Reference: patent US12038433B2, “Methods and apparatus for high-throughput screening for testing permeability and retention of compounds across biological barriers” (Board of Regents, The University of Texas System, priority 2019, dated 2024)

Legend:
[1] = 96-well plate permeation study of doxycycline, skin measured with mass spec pen; format: in vitro ADME; details: 24 hours, different concentrations applied
Description: A permeation study was done using the 96-well plates screening method over a course of 24 hours. Doxycycline at different concentrations was used as a model drug. After 24 hours, the receptor fluid was removed, and the plates were disassembled. The mass spec pen (described by Zhang et al. and Sans et al.) was used to measure the amount of doxycycline on the top layers of the skin (epidermis side) and on the bottom layers of the skin (dermis side) by flipping the skin upside down (26, 27).

[2] = HTS formulation screening, retention of SRB in skin layers by 2 photon microscopy (3x2x3 full factorial design); format: in vitro ADME, human
Description: (§1) Two bottomless 96-well plates from Greiner bio-one were used.
(§2) The receptor plate was sealed with an adhesive film and overfilled with PBS (pH=7.4).
(§3) An 8×9 cm of skin tissue was placed on top of the receptor plate, dermis side in contact with the receptor fluid and stratum corneum up. The donor plate was placed on top of the skin. A 4 kg weight was placed on top and nuts were attached to the plate.
(§4) This sandwich was incubated for 1 hour at 32 deg C. and 75 rpm. After 1 hour, the formulations prepared in Table 1 and containing 0.5 mg/ml of SRB as a model hydrophilic drug were applied in triplicate to the donor wells.
(§5) The receptor compartment was analyzed by fluorescence using a plate reader and the skin was analyzed using 2 photon microscopy, the same way as described in Example 4. Images were collected at 256×256 pixels and 223.78 μm×223.78 μm. The z-axis profile was obtained by acquiring images at every 10 μm down the skin, up to 200 μm. The detailed 2-photon analysis utilized in this study took approximately 2 h (around a minute to 2 min for each well).
A 3×2×3 full factorial design was used to design the experiment and statistically analyze the differences in permeation and retention of the formulations applied in the skin.

[3] = not tape-stripped; cited from earlier work
[4] = Feasibility in vitro permeation study using squared and flat 384-well plates; format: in vitro ADME; details: 8 h, between the 0.5 mg/ml SRB and the 0.05 mg/ml SRB applied, lateral diffusion present
Description: Feasibility studies were conducted using squared and flat 384-well plates with no ridges or projected wells. The plates were assembled the same way as presented in Example 4. […] […] […] Samples were taken after 8 h and measured using fluorescence in a plate reader.

[5] = Permeation of SRB across tape-stripped skin, 96-well HTS compared with Franz cells, receptor fluid fluorescence; format: in vitro ADME, human; details: SRB 0.5 mg/ml, 8 h, 32° C., p-value >0.05 (FIG. 7)
Source text: “The 96-well plates, with and without bottom, were modified by inserting 2 symmetric and parallel holes in each side of the plate using a drill. The holes were made in order to attach the plates together as a sandwich. The skin was tape-stripped 15 times, rubbing with a thumb three times before each strip (in the same manner as for the Franz cells). Tape-stripping was necessary to allow for drug permeation across the skin and direct quantification in the receptor compartment. […] The receptor fluid analysis was needed to compare permeability of SRB between methods (FC and HTS).”
“The 96-well plate with the bottom was used as the receptor compartment. The volume of each well is 380 μL and the area of diffusion is 0.38 cm^2. The receptor compartment was overfilled with degassed PBS (pH=7.4) to avoid the formation of any bubbles that would hinder drug permeation. […]
The plate was incubated at 32° C. for 1 h. […] After 8 h, the plates were disassembled and the receptor plate was analyzed using a spectrophotometer (Infinite M200 microplate reader, TECAN US Inc, NC, USA) for the quantification of fluorescence intensity (λexcitation=550 nm and λemission=590 nm). Standard solutions of SRB in PBS (pH=7.4) in the range of 500-0.03 μg/ml were prepared and the fluorescence intensity was measured to obtain the calibration curve. […]

[6] = Skin retention analysis of SRB by two-photon-induced fluorescence imaging (FC vs HTS); format: in vitro ADME, human; details: surface down to 150 μm, after 8 h (FIG. 8)
Source text: A two-photon-induced fluorescence imaging was used to determine the retention of SRB in the skin using a Prairie Technologies Ultimalntravital 2PA confocal microscope system (Park et al., 2008; Denk et al., 1990). The microscope objective was an Olympus® 10×, 0.30 NA, UMPlanFL N water immersion lens. Two-photon laser excitation was provided by a Spectra-Physics Tsunami® Ti:Sapphire laser with a τP=150 fs and P=108 mW. The laser was tuned to 1000 nm, since SRB excites at 550 nm and no skin autofluorescence is observed at this wavelength. Four fluorescence channels were detected simultaneously during imaging. The photomultiplier tube (PMT) bias voltages for each channel were set to 650 V for channel 1, 650 V for channel 2 (where SRB is detected), 800 V for channel 3 (where we can measure the autofluorescence of the skin), and 800 V for channel 4. Skin autofluorescence or second harmonic generation of collagen were detected in channels 3 and 4, respectively (Roberts et al., 2011). The fluorescence emission of SRB was recorded in channel 2 (λ=595±35 nm) since the wavelength of emission for SRB is 590 nm. Skin images were recorded above the surface of the skin and the maximum fluorescence intensity was considered to be the top layer or surface of the skin since excess of formulation was still present at the top of the skin at the end of the permeation study (8 h). […]

[7] = HTS formulation screening, permeability of SRB across the skin into the receptor fluid (plate reader fluorescence); format: in vitro ADME, human; details: not statistically significant (FIG. 10 E)
Description: as §1, §2, §3, §4, §5

SMILES | permeation, amount on top (epidermis side) and bottom (dermis side) layers of the skin [1] | amount of SRB inside the skin ([2]; 5% and 2.5% surfactant concentration compared to no surfactant, post hoc analysis) | amount of the model drug in the skin layers ([2]; DMSO alone compared to 50:50 mixture of DMSO:Propylene glycol) | amount of SRB into the skin ([2]; DMSO compared to Propylene glycol alone, only at lower depths (100-150 micrometers)) | amount of drug inside the skin ([2]; OA (oleic acid) in the formulation, PG solvent (FIG. 10 A, B)) | amount of SRB inside the skin ([2]; increasing the concentration of Tween 80, PG solvent (FIG. 10 C, D)) | Statistically significant variables on the amount of SRB retained ([2]; skin depth 0 μm, solvent ratio factor) | Statistically significant variables on the amount of SRB retained ([2]; skin depth 0 μm, surfactant concentration factor) | Statistically significant variables on the amount of SRB retained ([2]; skin depth 20 μm, solvent ratio factor) | Statistically significant variables on the amount of SRB retained ([2]; skin depth 20 μm, surfactant concentration factor) | Statistically significant variables on the amount of SRB retained ([2]; skin depth 100 μm, solvent ratio factor) | Statistically significant variables on the amount of SRB retained ([2]; skin depth 100 μm, surfactant concentration factor) | Statistically significant variables on the amount of SRB retained ([2]; skin depth 150 μm) | permeation across intact skin [3] | permeability of SRB across the skin [4] | permeation and distribution of the drug, Franz cells (FC) vs HTS [5] | depth profile/Z-axis profile, relative change in fluorescence intensity over every 5 μm depth in the skin, FC vs HTS [6] | amount of drug across the skin, into the receptor solution ([7]; OA (oleic acid) in the formulation) | amount of SRB across the skin ([7]; increasing the concentration of Tween 80)
C[C@H]1c2cccc(O)c2C(=O)C2=C(O)[C@]3(O)C(=O)C(C(N)=O)=C(O)[C@@H](N(C)C)[C@@H]3[C@@H](O)[C@@H]21 [Doxycycline] | Changes in permeation were detected |  |  |  |  |  |  |  |  |  |  |  |  |  |  |  |  |  | 
CCN(CC)c1ccc2c(-c3ccc(S(=O)(=O)O)cc3S(=O)(=O)[O-])c3ccc(=[N+](CC)CC)cc-3oc2c1 [SRB, Sulforhodamine B] |  | increases the amount of SRB inside the skin | enhances the amount of the model drug in all the skin layers | significantly enhance the amount of SRB into the skin | increased the amount of drug inside the skin | increased the amount of SRB inside the skin | Solvent ratio (*) | Surfactant concentration (**) | Solvent ratio (**) | Surfactant concentration (*) | Solvent ratio (**) | Surfactant concentration (*) | Solvent ratio (**) | unable to permeate intact skin | changed | almost identical | similar | also across the skin | not across the skin
